In US11976054B2, “Amide derivative and preparation method therefore and use thereof in medicine” (Chengdu Baiyu Pharmaceutical Co., Ltd., priority 2019, dated 2024):

Columns and labels:
[1] = system: Human monocyte cell line THP-1; assay: Detection of THP-1 cell pyroptosis (Caspase-Glo 1 Inflammasome Assay); assay type: cell-based; conditions: 20 nM PMA 48 h, 1 μg/mL LPS, compound 3 h
Method in brief: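 Differentiated with 20 nM PMA for 48 h (50,000 cells/well), then given serum-free medium with 1 μg/mL LPS and compound in a 10-point, 3-fold series from 10 μM for 3 h at 37 °C. Caspase-1 activity read with Caspase-Glo 1 Inflammasome kit; IC50 calculated.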

[2] = Pharmacokinetic analysis of compounds in rats; assay type: in vivo, SD rats; conditions: for F %: po 10 mg/kg vs iv 1 mg/kg
Method: Healthy adult SD rats weighing 180-220 g were fasted (free access to water) overnight and divided into tail vein administration group and intragastric administration group. The tail vein administration group was subjected to blood collection of 0.1 mL from orbital venous plexus before the administration and 5 min, 15 min, 0.5 h, 1 h, 2 h, 4 h, 8 h, 12 h and 24 h after the administration, and plasma was separated out by centrifugation at 4° C. for 5 min and stored at −20° C. for test. The intragastric administration group was subjected to blood collection of 0.1 mL from orbital venous plexus before the administration and 5 min, 15 min, 0.5 h, 1 h, 2 h, 4 h, 8 h, 12 h and 24 h after the administration, and the subsequent treatment procedures were the same as those of the tail vein injection group. The concentration of parent drug in the plasma was determined by LC-MS/MS.

[3] = system: IL-1β release in human PBMCs; assay: Assay of IL-1β release in human PBMCs; assay type: cell-based; conditions: 10 ng/mL LPS 3 h, compound 0.5 h, 5 mM ATP 1 h, ELISA
Method: 5 mL of human venous whole blood from a healthy donor was placed in a Li-heparin tube. PBMCs were isolated and incubated in a culture medium containing 10 ng/mL LPS at 37° C./5% CO2 for 3 h. Cells were plated in a 96-well plate at 50 μL per well. 25 μL of compound or solvent control was added to each well and 3-fold diluted in gradient from a maximum concentration of 10 μM, and 8 gradient concentrations were set. The mixtures were incubated for 0.5 h. 25 μL of ATP at a final concentration of 5 mM was added to each well, and the resulting mixtures were incubated for 1 h. After the incubation, the mixtures were centrifuged at 1500 rpm for 20 min, and the supernatant was collected to detect the expression level of […] by ELISA (BD, Human IL-1β ELISA Set II, Cat #557953). IC50 was calculated using GraphPad Prism7.0 software. The results are shown in Table 2, which indicate that: the compounds disclosed herein down-regulate release of mature IL-1β by inhibiting the activity of Caspase-1, and the IC50 is <50 nM.

[4] = SD rats, iv (tail vein), 1 mg/kg, plasma
[5] = SD rats, po (intragastric), 10 mg/kg, plasma
[6] = Homo sapiens, THP-1, THP-1 pyroptosis

C[C@@H](c1ccc2c(c1NC(=O)NS(=N)(=O)c1cc(C(C)(C)O)co1)CC2)C1CC1 (mixture of isomers) [Compound 38-1, RS- and SS-N-((3-((R)-1-cyclopropylethyl)bicyclo[4.2.0]octa-1(6),2,4-trien-2-yl)carbamoyl)-4-(2-hydroxypropan-2-yl)furan-2-sulfonimidamide]
IC50 ([1]; THP-1 pyroptosis): ≤ 100 nM
AUC [2, 4]: 2112 ng·h/mL
Cl [2, 4]: 8.2 mL/min/kg
Vss [2, 4]: 0.679 L/kg
t1/2 [2, 4]: 2.2 h
F % ([2]; SD rats): 184%
AUC [2, 5]: 38823 ng·h/mL
Cmax [2, 5]: 13267 ng/mL
t1/2 [2, 5]: 3.1 h

C[C@@H](c1cc(F)c2c(c1NC(=O)N[S@@](=N)(=O)c1cc(C(C)(C)O)co1)CCC2)C1CC1 (mixture of isomers) [Compound 42-1, (R)- and (S)-N-((5-((R)-1-cyclopropylethyl)-7-fluoro-2,3-dihydro-1H-inden-4-yl)carbamoyl)-4-(2-hydroxypropan-2-yl)furan-2-sulfonimidamide]
IC50 [1, 6]: 100 to 500 nM
IC50 ([3]; PBMC): 18.5 nM

C[C@@H](c1ccc2c(c1NC(=O)NS(=N)(=O)c1cc(C(C)(C)O)co1)CCC2)C1CC1 (mixture of isomers) [Compound 6-2, (RS, RC)- and (SS, RC)-N-((5-(-1-cyclopropylethyl)-2,3-dihydro-1H-inden-4-yl)carbamoyl)-4-(2-hydroxypropan-2-yl)furan-2-sulfonimidamide]
IC50 ([1]; THP-1 pyroptosis): 100 to 500 nM
AUC [2, 4]: 1657 ng·h/mL
Cl [2, 4]: 10.2 mL/min/kg
Vss [2, 4]: 0.781 L/kg
t1/2 [2, 4]: 1.5 h
F % ([2]; SD rats): 65.9%
AUC [2, 5]: 10920 ng·h/mL
Cmax [2, 5]: 4073 ng/mL
t1/2 [2, 5]: 2.8 h

CC(c1ccc2c(c1NC(=O)NS(=N)(=O)c1cc(C(C)(C)O)co1)CCC2)C1CC1 (racemic) [Compound 8-2, (RS, SC)- and (SS, SC)-N-((5-(1-cyclopropylethyl)-2,3-dihydro-1H-inden-4-yl)carbamoyl)-4-(2-hydroxypropan-2-yl)furan-2-sulfonimidamide]
IC50 ([1]; THP-1 pyroptosis): 500 to 1000 nM
AUC [2, 4]: 2170 ng·h/mL
Cl [2, 4]: 7.8 mL/min/kg
Vss [2, 4]: 0.656 L/kg
t1/2 [2, 4]: 2.0 h
F % ([2]; SD rats): 66.7%
AUC [2, 5]: 14484 ng·h/mL
Cmax [2, 5]: 6190 ng/mL
t1/2 [2, 5]: 3.4 h

CC(c1ccc2c(c1NC(=O)NS(=N)(=O)c1cc(C(C)(C)O)co1)CC2)C1CC1 (racemic) [Compound 36-1, (RS, SC)- and (SS, SC)-N-((3-(1-cyclopropylethyl)bicyclo[4.2.0]octa-1(6),2,4-trien-2-yl)carbamoyl)-4-(2-hydroxypropan-2-yl)furan-2-sulfonimidamide]
IC50 ([1]; THP-1 pyroptosis): ≤ 100 nM
AUC [2, 4]: 14614 ng·h/mL
Cl [2, 4]: 1.3 mL/min/kg
Vss [2, 4]: 0.22 L/kg
t1/2 [2, 4]: 3.9 h
F % ([2]; SD rats): 98.5%
AUC [2, 5]: 143938 ng·h/mL
Cmax [2, 5]: 33467 ng/mL
t1/2 [2, 5]: 2.9 h

C[C@@H](c1ccc2c(c1NC(=O)NS(=N)(=O)c1cc(C(C)(C)O)co1)CCC2)C1CCC1 (mixture of isomers) [Compound 80-2, (RS)- and (SS)-N-((5-((R)-1-cyclobutylethyl)-2,3-dihydro-1H-inden-4-yl)carbamoyl)-4-(2-hydroxypropan-2-yl)furan-2-sulfonimidamide]
IC50 ([1]; THP-1 pyroptosis): ≤ 100 nM
IC50 [3]: 14.8 nM

CC(C)(O)c1coc(S(=N)(=O)NC(=O)Nc2c(CC3CCC3)ccc3c2CCC3)c1 (single isomer, unassigned) [Compound 18-1, RS- and SS-N-((5-(cyclobutylmethyl)-2,3-dihydro-1H-inden-4-yl)carbamoyl)-4-(2-hydroxypropan-2-yl)furan-2-sulfonimidamide]
IC50 ([1]; THP-1 pyroptosis): 500 to 1000 nM
AUC ([2]; rat, in vivo, iv, 1 mg/kg): 2226 ng·h/mL
Cl ([2]; rat, in vivo, iv, 1 mg/kg): 7.59 mL/min/kg
Vss ([2]; rat, in vivo, iv, 1 mg/kg): 0.845 L/kg
t1/2 ([2]; rat, in vivo, iv, 1 mg/kg): 2.2 h
AUC ([2]; rat, in vivo, po, 10 mg/kg): 20153 ng·h/mL
Cmax ([2]; rat, in vivo, po, 10 mg/kg): 9867 ng/mL
t1/2 ([2]; rat, in vivo, po, 10 mg/kg): 2.9 h

Cc1oc(S(=N)(=O)NC(=O)Nc2c(C(C)C3CC3)ccc3c2CCC3)cc1C(C)(C)O (single isomer, unassigned) [Compound 24-2, RS- and SS-N-((5-(1-cyclopropylethyl)-2,3-dihydro-1H-inden-4-yl)carbamoyl)-4-(2-hydroxypropan-2-yl)-5-methylfuran-2-sulfonimidamide]
IC50 ([1]; THP-1 pyroptosis): ≤ 100 nM
IC50 [3]: 17.4 nM

[2H]c1cc([C@@H](C)C2CC2)c(NC(=O)NS(=N)(=O)c2cc(C(C)(C)O)co2)c2c1CCC2 (single isomer, unassigned) [Compound 32-2, (RS, SC)- and (SS, SC)-N-((5-(1-cyclopropylethyl)-2,3-dihydro-1H-inden-4-yl-7-d)carbamoyl)-4-(2-hydroxypropan-2-yl)furan-2-sulfonimidamide]
IC50 ([1]; THP-1 pyroptosis): ≤ 100 nM
IC50 ([3]; PBMC): 28.9 nM

C[C@H](c1ccc2c(c1NC(=O)NS(=O)(=O)c1cc(C(C)(C)O)co1)CCC2)C1CC1 [Compound 7, (S)-N-((5-(1-cyclopropylethyl)-2,3-dihydro-1H-inden-4-yl)carbamoyl)-4-(2-hydroxypropan-2-yl)furan-2-sulfonamide]
IC50 [1, 6]: ≤ 100 nM
IC50 ([3]; PBMC): 41.1 nM

CC(c1cc(F)c2c(c1NC(=O)NS(=O)(=O)c1cc(C(C)(C)O)co1)CCC2)C1CC1 (stereo not drawn) [Compound 9, N-((5-(1-cyclopropylethyl)-7-fluoro-2,3-dihydro-1H-inden-4-yl)carbamoyl)-4-(2-hydroxypropan-2-yl)furan-2-sulfonamide]
IC50 ([3]; PBMC): 25.6 nM

Cc1oc(S(=O)(=O)NC(=O)Nc2c([C@@H](C)C3CC3)ccc3c2CCC3)cc1C(C)(C)O [Compound 23, (S)-N-((5-(1-cyclopropylethyl)-2,3-dihydro-1H-inden-4-yl)carbamoyl)-4-(2-hydroxypropan-2-yl)-5-methylfuran-2-sulfonamide]
IC50 [1, 6]: 100 to 500 nM
IC50 ([3]; PBMC): 5 nM

[2H]c1cc([C@H](C)C2CC2)c(NC(=O)NS(=O)(=O)c2cc(C(C)(C)O)co2)c2c1CCC2 [Compound 29, (R)-N-((5-(1-cyclopropylethyl)-2,3-dihydro-1H-inden-4-yl-7-d)carbamoyl)-4-(2-hydroxypropan-2-yl)furan-2-sulfonamide]
IC50 [1, 6]: 100 to 500 nM
IC50 ([3]; PBMC): 18.5 nM

C[C@@H](c1cc(F)c2c(c1NC(=O)NS(=O)(=O)c1cc(C(C)(C)O)co1)CCC2)C1CC1 [Compound 41, (R)-N-((5-(1-cyclopropylethyl)-7-fluoro-2,3-dihydro-1H-inden-4-yl)carbamoyl)-4-(2-hydroxypropan-2-yl)furan-2-sulfonamide]
IC50 [1, 6]: ≤ 100 nM
IC50 ([3]; PBMC): 5 nM

C[C@H](c1cc(F)c2c(c1NC(=O)NS(=O)(=O)c1cc(C(C)(C)O)co1)CCC2)C1CC1 [Compound 43, (S)-N-((5-(1-cyclopropylethyl)-7-fluoro-2,3-dihydro-1H-inden-4-yl)carbamoyl)-4-(2-hydroxypropan-2-yl)furan-2-sulfonamide]
IC50 [1, 6]: 500 to 1000 nM
IC50 ([3]; PBMC): 11.6 nM

C[C@@H](c1ccc2c(c1NC(=O)NS(=O)(=O)c1cnc(C(C)(C)O)s1)CCC2)C1CC1 [Compound 87, (R)-N-((5-(1-cyclopropylethyl)-2,3-dihydro-1H-inden-4-yl)carbamoyl)-2-(2-hydroxypropan-2-yl)thiazole-5-sulfonamide]
IC50 [1, 6]: ≤ 100 nM
IC50 ([3]; PBMC): 40.4 nM

RS- and SS-N-((5-(cyclobutylmethyl)-2,3-dihydro-1H-inden-4-yl-7-d)carbamoyl)-4-(2-hydroxypropan-2-yl)furan-2-sulfonimidamide [Compound 39-2]
IC50 ([1]; THP-1 pyroptosis): 1000 to 5000 nM
